Experimental data from publication PMC8398766, “Do Small Molecules Activate the TrkB Receptor in the Same Manner as BDNF? Limitations of Published TrkB Low Molecular Agonists and Screening for Novel TrkB Orthosteric Agonists” (Pharmaceuticals, 2021).
Entries after “also recorded” stand apart in the source; their conditions may differ. Read-outs that look alike come from different tables or passages of the source.

Columns and labels:
ERK1/2 and Akt1 = test: Immunoblot, non-differentiated SH-SY5Y cells; type: cell-based
Protocol: The SH-SY5Y cell line was purchased from MilliporeSigma and cultured in growth medium: MEM (w/Earle’s Salts; w/L-Glutamine) + Ham’s F12 (w/L-Glutamine) (1:1 v/v), 1 × Antibiotic-Antimycotic, 1 × MEM Non-Essential Amino Acids (all reagents from Biowest, Riverside, MO, USA) and 15% FBS (Gibco, Thermo Fisher Scientific, Waltham, MA, USA). Cells were passaged using 0.25% Trypsin-EDTA (Biowest) and cultured in standard conditions (5% CO2, 37 °C with 95% relative humidity).
(§1) Compound treatment was stopped by lysing cells with N-PER™ Neuronal Protein Extraction Reagent (Thermo Fisher Scientific) containing 1 × PhosSTOP™ (Roche, Basel, Switzerland), 1 × Halt Protease Inhibitor Single-Use Cocktail (ThermoFisher Scientific) and 5 mM EDTA. The lysates were collected by scraping, and centrifuged (8000× g; 10 min at 4 °C), and the protein concentration was determined using a BCA Pierce kit (ThermoFisher Scientific). The lysates were stored at −80 °C until further processing. […] After repeated washes (TBS-T), the proteins were detected with HRP-conjugated anti-rabbit antibodies (1:4000, RT, 2 h) (Cell Signaling Technology), and the blots were incubated with Clarity Max ECL Western Blotting Substrate (Bio-Rad). Blot images and chemiluminescence signals were captured using a ChemiDoc MP Imaging System, and densitometry values were calculated using the Image Lab software (Bio-Rad). […]

[1] = tested on: TrkB receptor and downstream proteins (PLCγ1, Akt1, ERK1/2); test: Pharmacodynamics: immunoblot of hippocampus and frontal cortex; type: in vivo, BALB/c mice; details: 30 min and 2 h after 50 mg/kg p.o.
Protocol: as §1, with “processing. Samples containing 20 μg of protein were further denatured in 4 × Laemli Buffer with 5% β-mercaptoethanol at 95 °C for 5 min and electrophoresed on gels prepared using a 10% TGX Stain-Free™ FastCast™ Acrylamide Kit (Bio-Rad). Afterwards, the proteins were transferred (wet transfer, 100 V, 60 min) onto nitrocellulose membranes (GE Healthcare, Chicago, IL, USA), which were blocked in 5% BSA in TBS-T (TBS + 0.1% Tween20) for 2 h.” for “processing.”

in vivo = type: in vivo, BALB/c mice
Protocol: The animals were obtained from the Center of Experimental Medicine (University of Bialystok, Bialystok, Poland) and housed under standard laboratory conditions. Mice had unlimited access to water and food. All the procedures were conducted according to the guidelines of the local ethical commission (appl no. 06/2019, perm. no 10/2019). […] Four animals per time point were sacrificed at 10 min, 30 min, 1 h, 2 h, and 4 h after per os administration and 5 min, 10 min, 30 min, 1 h, and 2 h after i.v. administration. The blood (0.5 mL) was collected by heart puncture using probes with anticoagulants (K2EDTA). Plasma samples were obtained by blood centrifugation (15 min, 3000× g at 23 °C). The whole brain was dissected from the skull and washed with cold 0.9% NaCl on ice. The left hemisphere was quickly frozen in liquid nitrogen and stored at −80 °C for further bioanalytical analysis. From the right hemisphere, the hippocampus and frontal cortex were isolated, weighed, and stored at −80 °C after freezing in liquid nitrogen. Isolated structures were homogenized in N-PER cocktail (10 μL for every 1 mg of tissue) using a hand homogenizer, and then processed as described in Section 4.3.3.
For bioanalytical evaluation, brain samples were homogenized in water (3 mL for every 1 g of brain tissue). Plasma and brain samples were then prepared by precipitating proteins and extracting analytes using acetonitrile with the addition of the internal standard: 150 μL of extraction solution was added to 50 μL of biological material, mixed for 1 min and centrifuged (12,900 RPM, 4 min, 4 °C), and the supernatant was collected for analysis. Standard solutions including calibration standards and quality control samples were prepared by spiking 45 μL of biological material with 5 μL of standard working solution, adding 150 μL of extraction solution, and then mixing, centrifuging, and collecting the supernatant for analysis. The concentrations of analytes in the plasma and brain samples were determined using a UPLC-MS/MS instrument (Agilent Technologies) and chromatographic columns (Agilent Zorbax Eclipse 50 × 2.1 mm; 1.7 μm).

in vitro = details: mouse, microsomes
[2] = male, BALB/c, mouse, in vivo, po, 50 mg/kg

C=CC(C)(C)c1[nH]c2ccccc2c1C1=C(O)C(=O)C(c2c[nH]c3c(CC=C(C)C)cccc23)=C(O)C1=O [DMAQ-B1]
Phosphorylation of ERK1/2 and Akt1 (ERK1/2 and Akt1): significantly induce

O=c1cc(-c2ccccc2)oc2c(O)c(O)ccc12 [7,8-DHF, 7,8-dihydroxyflavone]
Activation of the TrkB receptor (phosphorylation) [1]: did not observe any activation; also recorded: no effect
PLCγ1, Akt1, and ERK1/2 phosphorylation [1]: no impact
Detection in plasma or brain samples (in vivo; 7,8-DHF i.v. 1 mg/kg): not detectable
C brain, individual mice (in vivo; 7,8-DHF i.v. 1mg/kg, 5min): < LLQ
C plasma, individual mice (in vivo; 7,8-DHF i.v. 1mg/kg, 5min): < LLQ
C brain, individual mice (in vivo; 7,8-DHF i.v. 1mg/kg, 10 min): < LLQ
C plasma, individual mice (in vivo; 7,8-DHF i.v. 1mg/kg, 10 min): < LLQ
C brain, individual mice (in vivo; 7,8-DHF i.v. 1mg/kg, 30 min): < LLQ
C plasma, individual mice (in vivo; 7,8-DHF i.v. 1mg/kg, 30 min): < LLQ
C brain, individual mice (in vivo; 7,8-DHF i.v. 1mg/kg, 1h): < LLQ
C plasma, individual mice (in vivo; 7,8-DHF i.v. 1mg/kg, 1h): < LLQ
C brain, individual mice (in vivo; 7,8-DHF i.v. 1mg/kg, 2h): < LLQ
C plasma, individual mice (in vivo; 7,8-DHF i.v. 1mg/kg, 2h): < LLQ
C plasma, individual mice (in vivo; 7,8-DHF p.o 50mg/kg, 1h): < LLQ
C brain, individual mice (in vivo; 7,8-DHF p.o 50mg/kg, 4h): < LLQ
C plasma, individual mice (in vivo; 7,8-DHF p.o 50mg/kg, 4h): < LLQ
Brain concentration relative to plasma (in vivo; 7,8-DHF p.o. 50 mg/kg): 10 fold lower
Time at which plasma concentration fell under the detection limit (in vivo; 7,8-DHF p.o. 50 mg/kg): 1 h
AUC (in vivo; [2]): 20.9 ng·h/mL
Time of maximal plasma concentration (in vivo; [2]): 10 min
Tmax (in vivo; [2]): 9.6 min
Cmax (in vivo; male, BALB/c, mouse, in vivo, po, 50 mg/kg, brain, 7,8-DHF p.o. 50 mg/kg, read-out: Cmax): 6.35 ng/g
Cmax (in vivo; male, BALB/c, mouse, in vivo, po, 50 mg/kg, plasma, 7,8-DHF p.o. 50 mg/kg, read-out: Cmax): 77.4 ng/mL
Cmax (in vivo; plasma, 7,8-DHF p.o. 50 mg/kg, 50 mg/kg): 72.42 ng/mL
microsomal CLint at 1 μM (in vitro): 21.3 µL/min/mg
